10 compounds from US8084649B2, “Herbicides” (Syngenta Crop Protection, inc., priority 2007, dated 2011) can be followed below.

Holding throughout (type): in vivo
Experiment [1] has as its system Echinochloa crus-galli (ECHCG). As to the kind of experiment: Pre-emergence herbicidal activity, glasshouse pot test. To be noted: Echinochloa crus-galli, 480 h, rate 500 g/ha, evaluated after 20 days, read-out: Pre-emergence activity, ECHCG (100=total damage to plant; 0=no damage to plant). The method in brief: (§1)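 Pre-emergence application: sprayed one day after seeding into pots of sterilised standard soil. After 20 days' growth in a greenhouse, percent damage was scored visually, 0 meaning unharmed and 100 total damage.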

Experiment [2] relates to Avena fatua (AVEFA). Described as above. To be noted: Avena fatua, 480 h, rate 500 g/ha, evaluated after 20 days, read-out: Pre-emergence activity, AVEFA (100=total damage to plant; 0=no damage to plant). In outline: as §1
In experiment [3] the test system is Setaria faberi (SETFA). The description is as above. To be noted: Setaria faberi, 480 h, rate 500 g/ha, evaluated after 20 days, read-out: Pre-emergence activity, SETFA (100=total damage to plant; 0=no damage to plant). In outline: as §1
The test system of experiment [4] is Digitaria sanguinalis (DIGSA). The description is as above. To be noted: Digitaria sanguinalis, 480 h, rate 500 g/ha, evaluated after 20 days, read-out: Pre-emergence activity, DIGSA (100=total damage to plant; 0=no damage to plant). The method in brief: as §1
Experiment [5] has as its system Alopecurus myosuroides (ALOMY). Described as above. As to conditions: Alopecurus myosuroides, 480 h, rate 500 g/ha, evaluated after 20 days, read-out: Pre-emergence activity, ALOMY (100=total damage to plant; 0=no damage to plant). In outline: as §1
In experiment [6] the test system is Lolium perenne (LOLPE). The experiment is described as above. To be noted: Lolium perenne, 480 h, rate 500 g/ha, evaluated after 20 days, read-out: Pre-emergence activity, LOLPE (100=total damage to plant; 0=no damage to plant). The method in brief:
as §1

Experiment [7] deals with Echinochloa crus-galli (ECHCG). Nature of the experiment: Post-emergence herbicidal activity, glasshouse pot test. As to conditions: Echinochloa crus-galli, evaluated after 14 or 15 days, read-out: Post-emergence activity, ECHCG (100=total damage to plant; 0=no damage to plant); for pest or weed control at 125 g/ha: rate 125 g/ha; for pest or weed control at 500 g/ha: rate 500 g/ha. The method in brief: (§2)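 Plants sown in sterilised standard soil, grown 10 days in glasshouse, then sprayed with aqueous dilution of active ingredient formulated in acetone plus Emulsogen EL/N-methylpyrrolidone/dipropylene glycol monomethyl ether/X-77 solution. Damage scored visually 14 or 15 days after spraying, 0 (none) to 100 (total).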

For experiment [8], the system named is Avena fatua (AVEFA). Described as above. As to conditions: Avena fatua, evaluated after 14 or 15 days, read-out: Post-emergence activity, AVEFA (100=total damage to plant; 0=no damage to plant); for pest or weed control at 125 g/ha: rate 125 g/ha; for pest or weed control at 500 g/ha: rate 500 g/ha. The method in brief: as §2
Experiment [9] relates to Setaria faberi (SETFA). The experiment is described as above. To be noted: Setaria faberi, evaluated after 14 or 15 days, read-out: Post-emergence activity, SETFA (100=total damage to plant; 0=no damage to plant); for pest or weed control at 125 g/ha: rate 125 g/ha; for pest or weed control at 500 g/ha: rate 500 g/ha. The method in brief:
as §2

Experiment [10] concerns Digitaria sanguinalis (DIGSA). The description is as above. As to conditions: Digitaria sanguinalis, evaluated after 14 or 15 days, read-out: Post-emergence activity, DIGSA (100=total damage to plant; 0=no damage to plant); for pest or weed control at 125 g/ha: rate 125 g/ha; for pest or weed control at 500 g/ha: rate 500 g/ha. The method in brief:
as §2

Experiment [11] relates to Alopecurus myosuroides (ALOMY). Described as above. As to conditions: Alopecurus myosuroides, evaluated after 14 or 15 days, read-out: Post-emergence activity, ALOMY (100=total damage to plant; 0=no damage to plant); for pest or weed control at 125 g/ha: rate 125 g/ha; for pest or weed control at 500 g/ha: rate 500 g/ha. The method in brief:
as §2

Experiment [12] relates to Lolium perenne (LOLPE). Described as above. To be noted: Lolium perenne, evaluated after 14 or 15 days, read-out: Post-emergence activity, LOLPE (100=total damage to plant; 0=no damage to plant); for pest or weed control at 125 g/ha: rate 125 g/ha; for pest or weed control at 500 g/ha: rate 500 g/ha. In outline:
as §2

For the compound `CCc1cc(C)cc(CC)c1C1=C(O)CC2(CCC(OC)CC2)CC1=O` (stereo not drawn) [Compound T68], the pest or weed control at 500 g/ha turned out to be 70% in [1]; 70% with Avena fatua (AVEFA) [2]; 30% with Setaria faberi (SETFA) [3]; 100% in experiment [4]; 90% in experiment [5]; 100% in the experiment on Lolium perenne (LOLPE) [6]. Moreover, the pest or weed control at 125 g/ha came out at 20% in experiment [7]; 40% in the experiment with Avena fatua (AVEFA) [8]; 20% in the experiment on Setaria faberi (SETFA) [9]; 30% in [10]; 80% in experiment [11]; 80% in the experiment with Lolium perenne (LOLPE) [12].

As for `CCc1cc(C)cc(CC)c1C1=C(OC(=O)OCC(C)(C)C)CC2(CCOCC2)CC1=O` [Compound P19], the pest or weed control at 500 g/ha (in [1]; with Avena fatua (AVEFA) [2]; with Setaria faberi (SETFA) [3]; in experiment [4]; in experiment [5]; in the experiment with Lolium perenne (LOLPE) [6]) was 100% throughout. Moreover, the pest or weed control at 125 g/ha in experiment [7] came to 100%; in the experiment on Avena fatua (AVEFA) [8], 90%; in the experiment with Setaria faberi (SETFA) [9], 70%; in experiment [10], 70%; in experiment [11] it was 90%; in the experiment on Lolium perenne (LOLPE) [12], 90%.

Turning to `CCCSC(C)CC1CC(=O)C(c2c(CC)cc(C)cc2CC)=C(O)C1` (stereo not drawn) [Compound T32], the pest or weed control at 500 g/ha in experiment [1] was found to be 100%; in the experiment on Avena fatua (AVEFA) [2], 80%; in the experiment on Setaria faberi (SETFA) [3] it was 100%; in [4] it was 100%; in [5], 90%; in the experiment with Lolium perenne (LOLPE) [6], 100%. Also, the pest or weed control at 500 g/ha came out at 100% in experiment [7]; 80% with Avena fatua (AVEFA) [8]; 100% in the experiment on Setaria faberi (SETFA) [9]; 100% in experiment [10]; 80% in experiment [11]; 90% in the experiment on Lolium perenne (LOLPE) [12].

For the compound `CCc1cc(C)cc(CC)c1C1=C(OC(=O)C(CC)CC)CC2(CCOCC2)CC1=O` [Compound P14], the pest or weed control at 500 g/ha in experiment [1] was found to be 90%; with Avena fatua (AVEFA) [2], 100%; with Setaria faberi (SETFA) [3], 100%; in [4] it was 100%; in [5] it was 100%; in the experiment with Lolium perenne (LOLPE) [6] it was 100%. Besides, the pest or weed control at 125 g/ha is 60% in experiment [7]; 80% in the experiment with Avena fatua (AVEFA) [8]; 60% in the experiment on Setaria faberi (SETFA) [9]; 70% in experiment [10]; 80% in [11]; 80% with Lolium perenne (LOLPE) [12].

In the case of `CCc1cc(C)cc(CC)c1C1=C(OC(=O)C(C)(C)C)CC2(CCCSC2)CC1=O` (stereo not drawn) [Compound P59], the pest or weed control at 500 g/ha in experiment [1] was 50%; in the experiment on Avena fatua (AVEFA) [2], 10%; in the experiment with Setaria faberi (SETFA) [3], 70%; in [4], 100%; in [5] it was 20%; with Lolium perenne (LOLPE) [6] it was 10%. Besides, the pest or weed control at 125 g/ha in experiment [7] was 30%; with Avena fatua (AVEFA) [8] it was 0%; with Setaria faberi (SETFA) [9], 60%; in experiment [10] it was 80%; in experiment [11], 40%; in the experiment on Lolium perenne (LOLPE) [12], 20%.

In the case of `CCc1cc(C)cc(CC)c1C1=C(O)CC(COCCOC)CC1=O` (stereo not drawn) [Compound T24], the pest or weed control at 500 g/ha came to 100% in experiment [1]; 80% with Avena fatua (AVEFA) [2]; 100% in the experiment with Setaria faberi (SETFA) [3]; 100% in experiment [4]; 100% in experiment [5]; 100% in the experiment on Lolium perenne (LOLPE) [6]. Further, the pest or weed control at 500 g/ha came to 100% in experiment [7]; 80% in the experiment on Avena fatua (AVEFA) [8]; 100% with Setaria faberi (SETFA) [9]; 90% in experiment [10]; 90% in experiment [11]; 90% in the experiment with Lolium perenne (LOLPE) [12].

In the case of `CCc1cc(C)cc(CC)c1C1=C(O)CC(C2(SC)CC2)CC1=O` (stereo not drawn) [Compound T21], the pest or weed control at 500 g/ha (in experiment [1]; in the experiment on Avena fatua (AVEFA) [2]; with Setaria faberi (SETFA) [3]; in [4]; in experiment [5]; in the experiment with Lolium perenne (LOLPE) [6]) was 100% each time. For the same compound, the pest or weed control at 500 g/ha in [7] turned out to be 90%; in the experiment on Avena fatua (AVEFA) [8] it was 100%; in the experiment with Setaria faberi (SETFA) [9], 90%; in [10], 100%; in experiment [11], 90%; in the experiment with Lolium perenne (LOLPE) [12], 90%.

On to `CCc1cc(C)cc(CC)c1C1=C(O)CC(COCOC)CC1=O` (stereo not drawn) [Compound T23], for which the pest or weed control at 500 g/ha in [1] is 100%; in the experiment with Avena fatua (AVEFA) [2], 70%; with Setaria faberi (SETFA) [3] it was 70%; in experiment [4], 100%; in [5] it was 80%; in the experiment with Lolium perenne (LOLPE) [6], 80%. Further, the pest or weed control at 500 g/ha in experiment [7] was 100%; with Avena fatua (AVEFA) [8], 80%; in the experiment on Setaria faberi (SETFA) [9], 100%; in [10], 90%; in experiment [11], 90%; in the experiment with Lolium perenne (LOLPE) [12], 90%.

Consider `CCCSC(C)CC1CC(=O)C(c2c(C)cc(C)cc2C)=C(O)C1` (stereo not drawn) [Compound T35], for which the pest or weed control at 500 g/ha in experiment [1] was 70%; in the experiment on Avena fatua (AVEFA) [2], 80%; in the experiment on Setaria faberi (SETFA) [3], 80%; in [4], 90%; in experiment [5], 90%; in the experiment on Lolium perenne (LOLPE) [6], 80%. The pest or weed control at 500 g/ha came to 70% in [7]; 70% in the experiment on Avena fatua (AVEFA) [8]; 50% in the experiment on Setaria faberi (SETFA) [9]; 70% in experiment [10]; 90% in experiment [11]; 80% in the experiment with Lolium perenne (LOLPE) [12].

For the compound `CCc1cc(C)cc(CC)c1C1=C(OS(=O)(=O)Cc2ccccc2)CC2(CCOCC2)CC1=O` [Compound P26], the pest or weed control at 500 g/ha was determined as 40% in experiment [1]; 80% with Avena fatua (AVEFA) [2]; 70% in the experiment on Setaria faberi (SETFA) [3]; 60% in experiment [4]; 80% in experiment [5]; 90% in the experiment on Lolium perenne (LOLPE) [6]. Further, the pest or weed control at 125 g/ha in experiment [7] stood at 0%; in the experiment on Avena fatua (AVEFA) [8] it was 0%; in the experiment with Setaria faberi (SETFA) [9], 0%; in [10], 10%; in experiment [11], 10%; in the experiment with Lolium perenne (LOLPE) [12], 0%.
